Data as given in PubChem BioAssay AID1259407 (Chemical Carcinogenesis Research Information System (CCRIS), 2018).
Activity calls are given as the source filed them. The rule behind the calls is not given here.

Tested on: CCRIS mutagenicity, Ames/micronucleus/aberration tests
Experiment: CCRIS mutagenicity studies
[1] = Test System: AMES SALMONELLA TYPHIMURIUM, Strain/Indicator: TA97, Metabolic Activation: NONE, Method: STANDARD PLATE
[2] = Test System: AMES SALMONELLA TYPHIMURIUM, Strain/Indicator: TA97, Metabolic Activation: RAT, LIVER, S-9, AROCLOR 1254, Method: STANDARD PLATE
[3] = Test System: AMES SALMONELLA TYPHIMURIUM, Strain/Indicator: TA98, Metabolic Activation: NONE, Method: STANDARD PLATE
[4] = Test System: AMES SALMONELLA TYPHIMURIUM, Strain/Indicator: TA98, Metabolic Activation: RAT, LIVER, S-9, AROCLOR 1254, Method: PREINCUBATION
[5] = Test System: AMES SALMONELLA TYPHIMURIUM, Strain/Indicator: TA98, Metabolic Activation: RAT, LIVER, S-9, AROCLOR 1254, Method: STANDARD PLATE
[6] = Test System: AMES SALMONELLA TYPHIMURIUM, Strain/Indicator: TA100, Metabolic Activation: NONE, Method: STANDARD PLATE
[7] = Test System: AMES SALMONELLA TYPHIMURIUM, Strain/Indicator: TA100, Metabolic Activation: RAT, LIVER, S-9, AROCLOR 1254, Method: STANDARD PLATE
[8] = Test System: AMES SALMONELLA TYPHIMURIUM, Strain/Indicator: TA102, Metabolic Activation: NONE, Method: STANDARD PLATE
[9] = Test System: AMES SALMONELLA TYPHIMURIUM, Strain/Indicator: TA102, Metabolic Activation: RAT, LIVER, S-9, AROCLOR 1254, Method: STANDARD PLATE
[10] = Test System: AMES SALMONELLA TYPHIMURIUM, Strain/Indicator: TA98, Metabolic Activation: NONE, Method: PREINCUBATION
[11] = Test System: AMES SALMONELLA TYPHIMURIUM, Strain/Indicator: TA100, Metabolic Activation: NONE, Method: PREINCUBATION
[12] = Test System: AMES SALMONELLA TYPHIMURIUM, Strain/Indicator: TA100, Metabolic Activation: RAT LIVER S-9, AROCLOR 1254, Method: PREINCUBATION

## CNCCCC(=O)O
[1]
  mutagenic call: inactive; negative
[2]
  mutagenic call: inactive; negative
[3]
  mutagenic call: inactive; negative
[4]
  mutagenic call: inactive; negative
[5]
  mutagenic call: inactive; negative
[6]
  mutagenic call: inactive; negative
[7]
  mutagenic call: inactive; negative
[8]
  mutagenic call: inactive; negative
[9]
  mutagenic call: inactive; negative
Test System: AMES SALMONELLA TYPHIMURIUM, Strain/Indicator: TA104, Metabolic Activation: NONE, Method: STANDARD PLATE
  mutagenic call: inactive; negative
Test System: AMES SALMONELLA TYPHIMURIUM, Strain/Indicator: TA104, Metabolic Activation: RAT, LIVER, S-9, AROCLOR 1254, Method: PREINCUBATION
  mutagenic call: inactive; negative
Test System: AMES SALMONELLA TYPHIMURIUM, Strain/Indicator: TA104, Metabolic Activation: RAT, LIVER, S-9, AROCLOR 1254, Method: STANDARD PLATE
  mutagenic call: inactive; negative
Test System: AMES SALMONELLA TYPHIMURIUM, Strain/Indicator: TA2638, Metabolic Activation: NONE, Method: STANDARD PLATE
  mutagenic call: inactive; negative
Test System: AMES SALMONELLA TYPHIMURIUM, Strain/Indicator: TA2638, Metabolic Activation: RAT, LIVER, S-9, AROCLOR 1254, Method: STANDARD PLATE
  mutagenic call: inactive; negative
Test System: AMES SALMONELLA TYPHIMURIUM, Strain/Indicator: UTH8413, Metabolic Activation: NONE, Method: STANDARD PLATE
  mutagenic call: inactive; negative
Test System: AMES SALMONELLA TYPHIMURIUM, Strain/Indicator: UTH8413, Metabolic Activation: RAT, LIVER, S-9, AROCLOR 1254, Method: STANDARD PLATE
  mutagenic call: inactive; negative
Test System: AMES SALMONELLA TYPHIMURIUM, Strain/Indicator: UTH8414, Metabolic Activation: NONE, Method: STANDARD PLATE
  mutagenic call: inactive; negative
Test System: AMES SALMONELLA TYPHIMURIUM, Strain/Indicator: UTH8414, Metabolic Activation: RAT, LIVER, S-9, AROCLOR 1254, Method: STANDARD PLATE
  mutagenic call: inactive; negative

## Nc1ccccc1-c1ccccc1
End Point: IN VITRO CHROMOSOMAL ABERRATIONS, Test System: CHO CELLS, Metabolic Activation: RAT, LIVER, S-9, AROCLOR 1254
  mutagenic call: inactive; negative
End Point: IN VITRO CHROMOSOMAL ABERRATIONS, Test System: CHO-WBL CELLS, Metabolic Activation: RAT, LIVER, S-9, PHENOBARBITAL AND BETA-NAPHTHOFLAVONE
  mutagenic call: active; positive (at 24 hr)
Test System: AMES SALMONELLA TYPHIMURIUM, Strain/Indicator: TA97, Metabolic Activation: HAMSTER, LIVER, S-9, AROCLOR 1254 (10%), Method: PREINCUBATION
  mutagenic call: inactive; negative
Test System: AMES SALMONELLA TYPHIMURIUM, Strain/Indicator: TA97, Metabolic Activation: NONE, Method: PREINCUBATION
  mutagenic call: inactive; negative
Test System: AMES SALMONELLA TYPHIMURIUM, Strain/Indicator: TA97, Metabolic Activation: RAT, LIVER, S-9, AROCLOR 1254 (10%), Method: PREINCUBATION
  mutagenic call: inactive; negative
Test System: AMES SALMONELLA TYPHIMURIUM, Strain/Indicator: TA98, Metabolic Activation: HAMSTER, LIVER, S-9, AROCLOR 1254 (10%), Method: PREINCUBATION
  mutagenic call: inactive; negative
[10]
  mutagenic call: inactive; negative
[3]
  mutagenic call: inactive; negative
Test System: AMES SALMONELLA TYPHIMURIUM, Strain/Indicator: TA98, Metabolic Activation: RAT LIVER S-9, AROCLOR 1254, Method: PREINCUBATION
  mutagenic call: inactive; negative
Test System: AMES SALMONELLA TYPHIMURIUM, Strain/Indicator: TA98, Metabolic Activation: RAT, LIVER, S-9, AROCLOR 1254 (4%), Method: STANDARD PLATE
  mutagenic call: inactive; negative
Test System: AMES SALMONELLA TYPHIMURIUM, Strain/Indicator: TA98, Metabolic Activation: RAT, LIVER, S-9, AROCLOR 1254 (10%), Method: PREINCUBATION
  mutagenic call: inactive; negative
Test System: AMES SALMONELLA TYPHIMURIUM, Strain/Indicator: TA100, Metabolic Activation: HAMSTER, LIVER, S-9, AROCLOR 1254 (10%), Method: PREINCUBATION
  mutagenic call: active; positive
[11]
  mutagenic call: inactive; negative
[6]
  mutagenic call: inactive; negative
[12]
  mutagenic call: inactive; negative
Test System: AMES SALMONELLA TYPHIMURIUM, Strain/Indicator: TA100, Metabolic Activation: RAT, LIVER, S-9, AROCLOR 1254 (10%), Method: PREINCUBATION
  mutagenic call: active; positive
Test System: AMES SALMONELLA TYPHIMURIUM, Strain/Indicator: TA1535, Metabolic Activation: HAMSTER, LIVER, S-9, AROCLOR 1254 (10%), Method: PREINCUBATION
  mutagenic call: inactive; negative
Test System: AMES SALMONELLA TYPHIMURIUM, Strain/Indicator: TA1535, Metabolic Activation: NONE, Method: PREINCUBATION
  mutagenic call: inactive; negative
Test System: AMES SALMONELLA TYPHIMURIUM, Strain/Indicator: TA1535, Metabolic Activation: RAT, LIVER, S-9, AROCLOR 1254 (10%), Method: PREINCUBATION
  mutagenic call: inactive; negative

## CC(=O)n1ccnc1
[1]
  mutagenic call: inactive; negative
[2]
  mutagenic call: inactive; negative
[3]
  mutagenic call: inactive; negative
[5]
  mutagenic call: inactive; negative
[6]
  mutagenic call: inactive; negative
[7]
  mutagenic call: inactive; negative
[8]
  mutagenic call: inactive; negative
[9]
  mutagenic call: inactive; negative

## CCC=O
[10]
  mutagenic call: inactive; negative
[4]
  mutagenic call: inactive; negative
[11]
  mutagenic call: inactive; negative
[12]
  mutagenic call: inactive; negative
Test System: AMES SALMONELLA TYPHIMURIUM, Strain/Indicator: TA100, Metabolic Activation: RAT, LIVER, S-9, AROCLOR 1254, Method: PREINCUBATION
  mutagenic call: inactive; negative
Test System: AMES SALMONELLA TYPHIMURIUM, Strain/Indicator: TA102, Metabolic Activation: NONE, Method: PREINCUBATION
  mutagenic call: inactive; negative
Test System: AMES SALMONELLA TYPHIMURIUM, Strain/Indicator: TA102, Metabolic Activation: RAT LIVER S-9, AROCLOR 1254, Method: PREINCUBATION
  mutagenic call: inactive; negative
Test System: AMES SALMONELLA TYPHIMURIUM, Strain/Indicator: TA102, Metabolic Activation: RAT, LIVER, S-9, AROCLOR 1254, Method: PREINCUBATION
  mutagenic call: inactive; negative
Test System: AMES SALMONELLA TYPHIMURIUM, Strain/Indicator: TA104, Metabolic Activation: NONE, Method: PREINCUBATION
  mutagenic call: inactive; negative
Test System: AMES SALMONELLA TYPHIMURIUM, Strain/Indicator: TA104, Metabolic Activation: RAT LIVER S-9, AROCLOR 1254, Method: PREINCUBATION
  mutagenic call: inactive; negative
Test System: CHINESE HAMSTER V-79, Strain/Indicator: V-79/6-THIOGUANINE (HGPRT), Metabolic Activation: NONE, Method: REPLATING
  mutagenic call: active; positive
Test System: CHINESE HAMSTER V-79, Strain/Indicator: V-79/6-THIOGUANINE, Metabolic Activation: NONE
  mutagenic call: inactive; negative
Test System: CHINESE HAMSTER V-79, Strain/Indicator: V-79/OUABAIN (NA/K), Metabolic Activation: NONE, Method: REPLATING
  mutagenic call: active; positive
Test System: UDS HUMAN HEPATOCYTES, Strain/Indicator: THY INCORP, Metabolic Activation: NONE, Method: AUTORADIOGRAPHY
  mutagenic call: inactive; negative
Test System: UDS RAT HEPATOCYTES, Strain/Indicator: THY INCORP, Metabolic Activation: NONE, Method: AUTORADIOGRAPHY
  mutagenic call: active; positive
